The target of assay [1] is KRAS (G12D)::SOS1 (Homo sapiens (Human), UniProt P01116, G12D). The assay is described as follows: KRAS::SOS1 AlphaScreen binding assay, KRAS G12D. In outline:
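Compounds (up to 100 μM, eleven fivefold dilutions in duplicate) were incubated 30 min with KRAS 1-169 (10 nM, or 7.5 nM for G12C), GST-SOS1 564-1049 (5 nM for G12D/G12C, 10 nM for others) and 10 μM GDP in PBS buffer with BSA and Tween. Donor/acceptor beads were then added for 60 min at room temperature, and IC50 came from a 4-parameter fit of the AlphaScreen signal.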
In general terms: Bead proximity is the source of the signal in Alpha formats.

Assay [2] concerns AsPC-1 cells. Briefly: AsPC-1 CTG proliferation assay (120 h) (pancreatic cancer, G12D). The format is cell-based. The following applies: Homo sapiens, ASPC1. In outline:
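AsPC-1 cells (KRAS G12D), 2000/well in RPMI with 10% FCS, seeded overnight, then treated with compound for 120 h at 37 °C. Viability by CellTiter-Glo luminescence as percent of DMSO control. IC50 from a four-parameter non-linear fit.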

The test system of assay [3] is SK-CO-1 cells. The assay is described as follows: SK-CO-1 CTG proliferation assay (120 h) (CRC, G12V). The assay is classed as cell-based. The settings on record: Homo sapiens; SK-CO-1 cells (CRC, G12V), CTG 120 h. In outline: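 SK-CO-1 colorectal cells (KRAS G12V), 500 per well in EMEM + 10% FCS, dosed with compound the day after seeding and grown 120 h at 37 °C. Viability by CellTiter-Glo luminescence as percent of DMSO control; IC50 from four-parameter non-linear regression.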

Sequence of KRAS (G12D)::SOS1 (P01116 other isoform, or with tags, fused parts or gaps G12D): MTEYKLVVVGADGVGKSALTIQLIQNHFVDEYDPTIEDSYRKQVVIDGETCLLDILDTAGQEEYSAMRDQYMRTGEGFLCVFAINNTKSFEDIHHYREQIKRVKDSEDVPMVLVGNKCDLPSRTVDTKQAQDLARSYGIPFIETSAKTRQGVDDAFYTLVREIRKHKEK

Broadly, the IC50 is the concentration at which inhibition is half-maximal. Read a low IC50 as greater potency in that assay. On to `CO[C@H]1CCN(C)[C@@H]1[C@H](C)Oc1cc(-n2ccc(CC(=O)NC(C)C)n2)nc(-c2noc3c2CCC[C@@]32CCCc3sc(N)c(C#N)c32)n1` [II-183], for which the IC50 in assay [1] came out at 1 nM; in assay [2] it was 162 nM; in assay [3], 7 nM.

As for `CO[C@@H]1C[C@@H]([C@H](C)Oc2cc(-c3cnn(C)n3)nc(-c3onc4c3CCC[C@@]43CCCc4sc(N)c(C#N)c43)n2)N(C)C1` [I-17], the IC50 was found to be 15 nM in assay [1], 9850 nM in assay [2] and 357 nM in assay [3].

For `C[C@H](Oc1cc(-c2ccn([C@H]3CCOC3)n2)nc(-c2noc3c2CCC[C@@]32CCCc3sc(N)c(C#N)c32)n1)[C@@H]1CCCN1C` [II-127], the values for the IC50 in assay [1], in assay [2] and in assay [3] were 3 nM, 2760 nM and 90 nM, respectively.

Turning to `CC(C)N1CCCN(c2cc(-c3ccn(C)n3)nc(-c3noc4c3CCC[C@@]43CCCc4sc(N)c(C#N)c43)n2)[C@@H](C)C1` [II-170], the IC50 worked out at 9 nM in assay [1], 3590 nM in assay [2] and 121 nM in assay [3].

For `C[C@H](Oc1nc(-c2noc3c2CCC[C@@]32CCCc3sc(N)c(C#N)c32)nc(N2C[C@H](C)NC3(CC3)C2)c1F)[C@@H]1C[C@@H](F)CN1C` [II-157], the values for the IC50 in assay [1], in assay [2] and in assay [3] were 1 nM, 129 nM and 339 nM, respectively.

As to `CC(C)NC(=O)Cc1ccn(-c2cc(O[C@@H](C)[C@@H]3CCCN3C)nc(-c3noc4c3CCC[C@@]43CCCc4sc(N)c(C#N)c43)n2)n1` [II-182], the IC50 was 1 nM in assay [1], 188 nM in assay [2] and 9 nM in assay [3].

`C[C@@H]1CN(c2cc(O[C@@H](C)[C@@H]3CCCN3C)nc(-c3noc4c3CCC[C@@]43CCCc4sc(N)c(C#N)c43)n2)CCN1` [II-161]: the concentration for half-maximal inhibition (IC50) in assay [1] amounted to 2 nM; in assay [2] it was 1600 nM; in assay [3] it was 1020 nM.

On to `C[C@H]1CNCCCN1c1cc(-n2ccnc2)nc(-c2noc3c2CCC[C@@]32CCCc3sc(N)c(C#N)c32)n1` [II-142], for which the IC50 was 25 nM in assay [1], 10100 nM in assay [2] and 2190 nM in assay [3].

Turning to `C[C@H](Oc1nc(-c2noc3c2CCC[C@@]32CCCc3sc(N)c(C#N)c32)nc(N2CCNC3(CC3)C2)c1Cl)[C@@H]1C[C@@H](F)CN1C` [II-156], the values for the IC50 in assay [1], in assay [2] and in assay [3] were 1 nM, 86 nM and 390 nM, respectively.

For the compound `C[C@H](Oc1cc(-n2cc3c(n2)CNC3)nc(-c2noc3c2CCC[C@@]32CCCc3sc(N)c(C#N)c32)n1)[C@@H]1C[C@@H](F)CN1C` [II-154], the IC50 was determined as 1 nM in assay [1], 1010 nM in assay [2] and 2120 nM in assay [3].

Regarding `C[C@H](Oc1cc(-n2cncc3ccnc2-3)nc(-c2onc3c2CCC[C@@]32CCCc3sc(N)c(C#N)c32)n1)[C@@H]1CCCN1C` [I-14], the IC50 in assay [1] came out at 3 nM; in assay [2], 3410 nM; in assay [3], 71 nM.

On to `[2H]C([2H])([2H])N1C[C@H](F)C[C@H]1[C@H](C)Oc1cc(N2CCN(C([2H])([2H])[2H])C3(CC3)C2)nc(-c2noc3c2CCC[C@@]32CCCc3sc(N)c(C#N)c32)n1` [II-207], for which the results for the IC50 in assay [1], in assay [2] and in assay [3] were 1 nM, 82 nM and 1260 nM, respectively.

In the case of `C[C@H](Oc1cc(-c2ccn(Cc3ncco3)n2)nc(-c2noc3c2CCC[C@@]32CCCc3sc(N)c(C#N)c32)n1)[C@@H]1CCCN1C` [II-128], the values for the IC50 in assay [1], in assay [2] and in assay [3] were 2 nM, 2100 nM and 47 nM, respectively.

For the compound `C[C@H](Oc1cc(N2CCN[C@@H](C)C2)nc(-c2noc3c2CCC[C@@]32CCCc3sc(N)c(C#N)c32)n1)[C@@H]1CCCN1C` [II-162], the IC50 was 1 nM in assay [1], 922 nM in assay [2] and 980 nM in assay [3].

With `CC(=O)N1CCN(c2cc(O[C@@H](C)[C@@H]3CCCN3C)nc(-c3noc4c3CCC[C@@]43CCCc4sc(N)c(C#N)c43)n2)CC12CC2` [II-178], the IC50 in assay [1] was 2 nM; in assay [2], 814 nM; in assay [3] it was 149 nM.

Turning to `C[C@H](Oc1cc(N2Cc3cnn(C)c3C2)nc(-c2onc3c2CCC[C@@]32CCCc3sc(N)c(C#N)c32)n1)[C@@H]1CCCN1C` [I-19], the IC50 in assay [1] worked out at 12 nM; in assay [2] it was 3000 nM; in assay [3] it was 56 nM.

Regarding `CNC1CCN(c2cc(O[C@@H](C)[C@@H]3CCCN3C)nc(-c3noc4c3CCC[C@@]43CCCc4sc(N)c(C#N)c43)n2)CC1` [II-214], the results for the IC50 in assay [1], in assay [2] and in assay [3] were 1 nM, 3520 nM and 5350 nM, respectively.

`C[C@H](Oc1cc(N2CCN(C)C3(CC3)C2)nc(-c2noc3c2CCC[C@@]32CCCc3sc(N)c(C#N)c32)n1)[C@@H]1CCCN1C` [II-171]: the IC50 in assay [1] stood at 1 nM; in assay [2] it was 295 nM; in assay [3] it was 1530 nM.

The record behind these values is patent publication US20240174690A1, “ANNULATED 2-AMINO-3-CYANO THIOPHENES AND DERIVATIVES FOR THE TREATMENT OF CANCER” (BOEHRINGER INGELHEIM INTERNATIONAL GMBH, priority 2021, published 2024).
